Measured values from article PMC12980303, “Development of a novel risk score reflecting the relative harm potential of synthetic cannabinoids based on prevalence estimates, well‐documented intoxication cases and basic pharmacological data” (Addiction (Abingdon, England), 2025).

Assay: LC–MS/MS analysis of serum and urine samples of intoxication cases
Assay type: in vivo, human
Conditions: for Concentration in serum: patient serum; for Finding in urine: patient urine
Protocol: The data on intoxication cases used for the development of this risk score were obtained from a prospective study. This study included patients who were treated in an emergency department room following the consumption of an NPS. Clinical symptoms and follow‐up information were documented using a structured questionnaire completed by the attending physicians. The methodology has been previously published. Residual serum (obtained from venous blood) and urine samples, accompanied by the completed questionnaires, were sent to the Poisons Information Center Freiburg for further analysis. The toxicological analyses of serum and urine samples were conducted at the Institute of Forensic Medicine Freiburg. No data was available on previous consumption patterns or potential development of tolerance after continued misuse. The study was conducted in accordance with the Declaration of Helsinki and approved by the regional ethics committee of the University of Freiburg (no. 235/13_130683). The intoxication cases included in this study are those in which SCRA use was confirmed by liquid chromatography tandem mass spectrometry (LC–MS/MS).
Serum/blood and urine analyses were conducted at the Institute of Forensic Medicine Freiburg using previously published LC–MS/MS methods, that were modified by adding further analytes present in ‘legal‐high’ products (‘herbal blends’, ‘C‐liquids’ or ‘research chemicals’), and covered approximately 100 different SCRAs. Detailed information can be found in the Supporting Information.
Urine samples were analysed according to previously published and validated method by Franz et al.^2. For sample preparation 0.5 mL of phosphate buffer (pH 6) and 30 μL of β-glucuronidase were added to 0.5 mL of urine. Incubation was for 60 min at 45°C. This was followed by protein precipitation using 1.5 mL acetonitrile containing the internal standard (c = 2 ng/mL) and 0.56 mL 10 M ammonium formate solution, followed by shaking and centrifugation. 1 mL of the organic phase was transferred into an autosampler vial and evaporated to dryness under N2. The samples were reconstituted in 200 μL mobile phase.
Urine sample analysis was performed on a Dionex UltiMate® 3000RS UHPLC (Thermo Scientific, Dreieich, Germany) coupled to an API 5000^TM triple quadrupole instrument with a TurboIonSpray® interface (Sciex, Darmstadt, Germany). Separation was performed on a Luna C18 100 Å (150 x 2 mm, 5 μm) column with the mobile phase consisting of 0.2% HCOOH and 2 mmol/L NH^4+HCOO^− in water (A) and acetonitrile (B).

Structure (SMILES): CC(C)C(NC(=O)c1nn(CC2CCCCC2)c2ccccc12)C(N)=O (centres unmarked)
- Concentration in serum (intoxication case A (AB‐CHMINACA)): 9.5 ng/mL
- Finding in urine (intoxication case A): positive
- Concentration in serum (intoxication case B (AB‐CHMINACA)): 27 ng/mL
- Concentration in serum (intoxication case B (AB‐CHMINACA), listed as AB-CHMINACA): ca. 27 ng/mL
- Finding in urine (intoxication case B): positive
